The results in this text go back to US20240269139A1, “COMPOUNDS FOR TARGETED PROTEIN DEGRADATION OF KINASES” (DANA-FARBER CANCER INSTITUTE, INC., priority 2020, published 2024).

Type in all cases: cell-based
Assay [1] concerns the target protein kinases (human kinome) (Homo sapiens, UniProt P51451). Particulars: for logFC BLK: BLK (P51451), direction down; for logFC of BLK: BLK P51451; for logFC of BLK (P51451): down.
Assay [2] has as its target T1, protein kinases (human kinome) (Homo sapiens, UniProt O14976).
T1 sequence (O14976 1-1311): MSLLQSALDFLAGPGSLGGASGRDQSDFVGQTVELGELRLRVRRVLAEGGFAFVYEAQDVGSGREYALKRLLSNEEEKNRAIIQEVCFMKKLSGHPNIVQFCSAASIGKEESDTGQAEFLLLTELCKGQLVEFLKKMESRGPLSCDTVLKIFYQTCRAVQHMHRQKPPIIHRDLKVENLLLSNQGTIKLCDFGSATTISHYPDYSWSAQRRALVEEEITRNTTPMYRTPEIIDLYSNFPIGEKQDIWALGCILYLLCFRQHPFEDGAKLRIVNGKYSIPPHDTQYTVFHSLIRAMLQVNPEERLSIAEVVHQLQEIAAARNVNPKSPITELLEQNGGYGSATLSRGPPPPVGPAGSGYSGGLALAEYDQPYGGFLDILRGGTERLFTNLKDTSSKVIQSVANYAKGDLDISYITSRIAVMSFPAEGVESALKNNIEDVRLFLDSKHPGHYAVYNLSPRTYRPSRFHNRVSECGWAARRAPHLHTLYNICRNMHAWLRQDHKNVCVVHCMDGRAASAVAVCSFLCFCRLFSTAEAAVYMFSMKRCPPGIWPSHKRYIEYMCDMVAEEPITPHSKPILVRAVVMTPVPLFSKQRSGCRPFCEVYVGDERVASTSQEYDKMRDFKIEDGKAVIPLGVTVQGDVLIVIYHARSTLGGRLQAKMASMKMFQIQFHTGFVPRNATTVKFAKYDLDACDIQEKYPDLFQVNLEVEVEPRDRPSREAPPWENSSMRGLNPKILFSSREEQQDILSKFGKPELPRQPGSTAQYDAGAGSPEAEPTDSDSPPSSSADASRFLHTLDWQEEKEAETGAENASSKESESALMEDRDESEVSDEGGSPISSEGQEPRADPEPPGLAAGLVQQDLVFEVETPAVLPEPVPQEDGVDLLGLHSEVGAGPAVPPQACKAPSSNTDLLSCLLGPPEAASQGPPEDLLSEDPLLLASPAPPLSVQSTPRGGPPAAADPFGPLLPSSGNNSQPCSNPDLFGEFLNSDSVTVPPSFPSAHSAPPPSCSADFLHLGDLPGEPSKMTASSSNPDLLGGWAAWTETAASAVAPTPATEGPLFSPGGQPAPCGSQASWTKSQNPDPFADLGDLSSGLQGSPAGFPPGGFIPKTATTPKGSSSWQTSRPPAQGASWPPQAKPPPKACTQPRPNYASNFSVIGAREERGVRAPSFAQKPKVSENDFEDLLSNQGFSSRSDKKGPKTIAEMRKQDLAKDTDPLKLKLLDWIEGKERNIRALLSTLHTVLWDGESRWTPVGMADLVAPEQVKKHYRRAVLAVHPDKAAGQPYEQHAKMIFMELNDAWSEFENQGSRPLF

In assay [3] the target is T2, protein kinases (human kinome) (Homo sapiens, UniProt Q9NYY8).
T2 sequence (Q9NYY8 1-710): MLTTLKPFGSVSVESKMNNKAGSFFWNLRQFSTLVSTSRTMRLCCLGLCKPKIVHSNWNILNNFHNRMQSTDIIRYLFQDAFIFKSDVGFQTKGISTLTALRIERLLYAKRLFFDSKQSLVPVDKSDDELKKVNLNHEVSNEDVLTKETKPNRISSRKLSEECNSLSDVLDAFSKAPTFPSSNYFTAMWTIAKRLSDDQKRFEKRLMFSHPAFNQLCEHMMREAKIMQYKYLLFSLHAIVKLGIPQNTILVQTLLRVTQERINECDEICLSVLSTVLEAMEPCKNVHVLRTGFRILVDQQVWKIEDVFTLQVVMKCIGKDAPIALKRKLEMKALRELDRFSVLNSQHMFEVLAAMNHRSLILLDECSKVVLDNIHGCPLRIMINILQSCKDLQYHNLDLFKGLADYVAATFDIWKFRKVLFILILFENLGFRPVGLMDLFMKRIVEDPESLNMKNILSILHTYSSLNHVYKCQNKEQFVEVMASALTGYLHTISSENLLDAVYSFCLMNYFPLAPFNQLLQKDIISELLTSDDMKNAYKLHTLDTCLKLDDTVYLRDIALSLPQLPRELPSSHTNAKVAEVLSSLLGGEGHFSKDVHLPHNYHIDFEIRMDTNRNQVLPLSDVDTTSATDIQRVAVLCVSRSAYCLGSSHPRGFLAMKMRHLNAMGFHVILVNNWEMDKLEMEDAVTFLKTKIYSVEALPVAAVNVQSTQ
Conditions: direction down.

Assay [4] addresses protein kinases (human kinome) (Homo sapiens, UniProt Q00534). Particulars: for logFC CDK6: CDK6 (Q00534), direction down; for logFC of CDK6 (Q00534): down.
Assay [5] has as its target protein kinases (human kinome) (Homo sapiens, UniProt Q9H0K1). Particulars: for logFC of SIK2: Accession Q9H0K1; for logFC SIK2 (Q9H0K1): direction of change down.
[6] abbreviates: GAK (O14976), direction down, experiment wp071.

The structures appear in SMILES notation. Where two headings read alike, the source gives them in different places.

Sequence of protein kinases (human kinome) (Homo sapiens, UniProt Q00534) (Q00534 whole entry): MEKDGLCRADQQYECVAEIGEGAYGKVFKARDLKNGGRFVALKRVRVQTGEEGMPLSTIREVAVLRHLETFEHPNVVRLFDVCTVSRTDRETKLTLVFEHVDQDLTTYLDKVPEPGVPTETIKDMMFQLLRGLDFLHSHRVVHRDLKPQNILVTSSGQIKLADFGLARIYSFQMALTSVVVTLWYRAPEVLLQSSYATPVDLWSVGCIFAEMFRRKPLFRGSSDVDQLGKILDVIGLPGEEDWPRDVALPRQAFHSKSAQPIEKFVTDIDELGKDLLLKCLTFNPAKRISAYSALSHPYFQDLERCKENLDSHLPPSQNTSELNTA
Sequence of protein kinases (human kinome) (Homo sapiens, UniProt Q9H0K1) (Q9H0K1 whole entry): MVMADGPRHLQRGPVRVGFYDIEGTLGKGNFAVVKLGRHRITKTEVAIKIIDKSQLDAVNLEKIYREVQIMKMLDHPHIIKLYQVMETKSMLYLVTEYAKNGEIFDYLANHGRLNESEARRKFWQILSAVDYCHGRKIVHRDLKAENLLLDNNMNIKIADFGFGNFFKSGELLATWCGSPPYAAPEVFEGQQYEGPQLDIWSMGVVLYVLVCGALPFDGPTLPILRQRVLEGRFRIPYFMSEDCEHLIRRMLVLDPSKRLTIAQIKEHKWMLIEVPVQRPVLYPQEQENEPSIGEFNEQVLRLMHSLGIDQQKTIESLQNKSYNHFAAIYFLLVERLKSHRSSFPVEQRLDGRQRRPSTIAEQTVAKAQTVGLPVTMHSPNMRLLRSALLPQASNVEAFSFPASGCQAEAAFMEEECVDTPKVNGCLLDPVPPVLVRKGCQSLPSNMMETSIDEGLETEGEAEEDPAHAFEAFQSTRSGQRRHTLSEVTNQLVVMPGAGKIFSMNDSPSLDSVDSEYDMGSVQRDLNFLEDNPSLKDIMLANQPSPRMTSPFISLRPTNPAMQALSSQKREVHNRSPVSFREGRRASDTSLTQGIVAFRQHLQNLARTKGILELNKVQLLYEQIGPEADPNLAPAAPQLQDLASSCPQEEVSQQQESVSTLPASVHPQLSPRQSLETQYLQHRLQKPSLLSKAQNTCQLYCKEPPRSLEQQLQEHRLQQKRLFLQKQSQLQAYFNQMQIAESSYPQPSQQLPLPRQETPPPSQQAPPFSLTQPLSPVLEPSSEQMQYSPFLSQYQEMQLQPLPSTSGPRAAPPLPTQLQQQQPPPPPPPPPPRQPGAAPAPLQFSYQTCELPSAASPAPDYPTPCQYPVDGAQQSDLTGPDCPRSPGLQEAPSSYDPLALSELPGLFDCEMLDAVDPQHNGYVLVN
Sequence of protein kinases (human kinome) (Homo sapiens, UniProt P51451) (P51451 whole entry): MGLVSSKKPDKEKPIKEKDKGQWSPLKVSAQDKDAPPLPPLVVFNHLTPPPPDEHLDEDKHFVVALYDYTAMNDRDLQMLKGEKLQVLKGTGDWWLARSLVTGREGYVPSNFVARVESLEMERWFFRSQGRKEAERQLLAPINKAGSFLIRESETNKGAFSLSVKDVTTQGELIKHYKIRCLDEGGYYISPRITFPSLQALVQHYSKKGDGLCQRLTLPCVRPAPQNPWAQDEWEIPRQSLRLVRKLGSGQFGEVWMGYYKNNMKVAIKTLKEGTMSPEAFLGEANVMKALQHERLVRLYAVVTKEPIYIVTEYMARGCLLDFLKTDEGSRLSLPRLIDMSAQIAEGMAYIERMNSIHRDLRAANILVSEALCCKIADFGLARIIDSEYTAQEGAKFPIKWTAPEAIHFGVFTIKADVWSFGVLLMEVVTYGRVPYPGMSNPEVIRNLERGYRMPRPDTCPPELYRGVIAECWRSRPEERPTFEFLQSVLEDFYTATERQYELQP

Consider `Cc1ccc(C(=O)Nc2ccc(CN3CCN(CCCOCCOCCOCCNC(=O)COc4cccc5c4C(=O)N(C4CCC(=O)NC4=O)C5=O)CC3)c(C(F)(F)F)c2)cc1C#Cc1cnc2cccnn12` (stereo not drawn) [SB1.G.187], for which the “logFC BLK” value is listed as −2.098 in assay [1] (experiment wp103) and −1.916 in assay [1] (experiment wp107). Moreover, the “logFC of BLK” value in assay [1] (experiment wp056) is −2.021. Moreover, the entries for the “logFC of BLK (P51451)” value in assay [1] (Experiment wp056), in assay [1] (Experiment wp103) and in assay [1] (Experiment wp107) were −2.021, −2.098 and −1.916, respectively. The “logFC of GAK (O14976)” value in assay [2] (Experiment wp056, down) is −1.543; in assay [2] (Experiment wp103, down), −1.478; in assay [2] (Experiment wp105, down) it was −1.088; in assay [2] (Experiment wp107, down) it was −1.768; in assay [2] (Experiment wp114, down), −0.3578. Further, the “logFC GAK” value is −1.543 in assay [2] (GAK (O14976), direction down, experiment wp056); −1.478 in assay [2] (GAK (O14976), direction down, experiment wp103); −1.088 in assay [2] (GAK (O14976), direction down, experiment wp105); −1.768 in assay [2] (GAK (O14976), direction down, experiment wp107); −0.3578 in assay [2] (GAK (O14976), direction down, experiment wp114); −1.007 in assay [2] (GAK (O14976), experiment wp172, down). Further, the “logFC GAK” value in assay [2] (GAK, accession O14976, experiment wp172, direction of change down) was −1.007. Besides, the “logFC FASTKD2 (Q9NYY8)” value in assay [3] (Experiment wp056) is on record as −0.3881. Also, the “logFC CDK6” value in assay [4] (experiment wp103) is listed as −0.346. The “logFC of CDK6 (Q00534)” value in assay [4] (Experiment wp103) was −0.346.

Turning to `CN(C)C(=O)c1cc2cnc(Nc3ccc(N4CCN(CCCCNC(=O)COc5cccc6c5C(=O)N(C5CCC(=O)NC5=O)C6=O)CC4)cn3)nc2n1C1CCCC1` (stereo not drawn) [BSJ.04.132], the “logFC FASTKD2 (Q9NYY8)” value in assay [3] (Experiment wp084) is given as −0.5107. In assay [4] (experiment wp084), the “logFC CDK6” value is recorded as −0.7531. Also, the “logFC of CDK6 (Q00534)” value in assay [4] (Experiment wp084) is −0.7531.

As to `CC(C)S(=O)(=O)c1ccccc1Nc1nc(Nc2ccc(N3CCN(CCOCCOCCNC(=O)CNc4cccc5c4C(=O)N(C4CCC(=O)NC4=O)C5=O)CC3)cc2)ncc1Cl` (stereo not drawn) [TL12.186], in assay [5] (experiment wp131), the “logFC of SIK2” value is recorded as −1.317. In addition, the “logFC SIK2 (Q9H0K1)” value in assay [5] (experiment wp131) is recorded as −1.317. The “logFC BLK” value was −2.497 in assay [1] (experiment wp131) and −2.115 in assay [1] (experiment wp137). Besides, in assay [1] (experiment wp016), the “logFC of BLK” value is −1.475. In addition, the “logFC of BLK (P51451)” value in assay [1] (Experiment wp016) is −1.475; in assay [1] (Experiment wp131) it was −2.497; in assay [1] (Experiment wp137), −2.115. Also, the “logFC of GAK (O14976)” value in assay [2] (Experiment wp016, down) is on record as −0.3354. For the same compound, in assay [2] (GAK (O14976), direction down, experiment wp016), the “logFC GAK” value was −0.3354. The “logFC FASTKD2 (Q9NYY8)” value in assay [3] (Experiment wp137) was −0.3625. In addition, the entries for the “logFC CDK6” value in assay [4] (experiment wp016), in assay [4] (experiment wp131) and in assay [4] (experiment wp137) were −0.5831, −0.9892 and −0.8724, respectively. Moreover, the results for the “logFC of CDK6 (Q00534)” value in assay [4] (Experiment wp016), in assay [4] (Experiment wp131) and in assay [4] (Experiment wp137) were −0.5831, −0.9892 and −0.8724, respectively.

As for `CC(=O)c1c(C)c2cnc(Nc3ccc(N4CCN(CCOCCOCCOCCNC(=O)COc5cccc6c5C(=O)N(C5CCC(=O)NC5=O)C6=O)CC4)cn3)nc2n(C2CCCC2)c1=O` (stereo not drawn) [BSJ.03.123], the “logFC FASTKD2 (Q9NYY8)” value in assay [3] (Experiment wp084) is on record as −0.51. In assay [4] (experiment wp084), the “logFC CDK6” value is reported as −3.058. Moreover, the “logFC of CDK6 (Q00534)” value in assay [4] (Experiment wp084) is given as −3.058.

For the compound `CC(C)(C)c1nc(-c2cccc(NS(=O)(=O)c3c(F)cccc3F)c2F)c(-c2ccnc(NCCOCCNC(=O)CCOCCOCCNc3cccc4c3C(=O)N(C3CCC(=O)NC3=O)C4=O)n2)s1` (stereo not drawn) [DD.03.106], the “logFC FASTKD2 (Q9NYY8)” value in assay [3] (Experiment wp147, 2 uM) is −0.3392; in assay [3] (Experiment wp147, 4 uM) it was −0.9073. Moreover, the “logFC CDK6” value in assay [4] (experiment wp047) is −1.086; in assay [4] (experiment wp137) it was −1.083; in assay [4] (experiment wp147, 1 uM) it was −0.8934; in assay [4] (experiment wp147, 2 uM), −1.348; in assay [4] (experiment wp147, 4 uM), −1.159. For the same compound, the “logFC of CDK6 (Q00534)” value in assay [4] (Experiment wp047) is given as −1.086; in assay [4] (Experiment wp137), −1.083; in assay [4] (Experiment wp147, 1 uM), −0.8934; in assay [4] (Experiment wp147, 2 uM), −1.348; in assay [4] (Experiment wp147, 4 uM) it was −1.159.

Take `Cn1c(=O)c(-c2c(Cl)cccc2Cl)cc2cnc(Nc3ccc(OCCNC(=O)CCCCCCNC(=O)COc4cccc5c4C(=O)N(C4CCC(=O)NC4=O)C5=O)cc3)nc21` (stereo not drawn) [SB1.G.192.1]: the “logFC of SIK2” value in assay [5] (experiment wp071) is given as −1.036; in assay [5] (experiment wp081), −1.196; in assay [5] (experiment wp131), −0.9342. In addition, the “logFC SIK2” value in assay [5] (SIK2 (Q9H0K1), experiment wp071, down) was −1.036. The “logFC SIK2 (Q9H0K1)” value in assay [5] (experiment wp081) was −1.196; in assay [5] (experiment wp131) it was −0.9342. Moreover, the “logFC BLK” value in assay [1] (experiment wp071) is listed as −2.399; in assay [1] (experiment wp081) it was −2.013; in assay [1] (experiment wp131) it was −2.465. The “logFC of BLK (P51451)” value is on record as −2.399 in assay [1] (Experiment wp071), −2.013 in assay [1] (Experiment wp081) and −2.465 in assay [1] (Experiment wp131). In addition, the “logFC of GAK (O14976)” value in assay [2] (Experiment wp071, down) is listed as −1.765; in assay [2] (Experiment wp081, down), −1.409; in assay [2] (Experiment wp131, down), −1.475. For the same compound, the “logFC GAK” value in assay [2] (setting [6]) was −1.765; in assay [2] (GAK (O14976), direction down, experiment wp081), −1.409; in assay [2] (GAK (O14976), direction down, experiment wp131), −1.475. Besides, the “logFC FASTKD2 (Q9NYY8)” value in assay [3] (Experiment wp081) is −0.3577.

`Cc1cnc(Nc2ccc(N3CCN(CCOCCOCCNC(=O)COc4cccc5c4C(=O)N(C4CCC(=O)NC4=O)C5=O)CC3)cc2)nc1Nc1cccc(S(=O)(=O)NC(C)(C)C)c1` (stereo not drawn) [JWG.118]: the “logFC of GAK (O14976)” value in assay [2] (Experiment wp071, down) is given as −1.972. Also, in assay [2] (setting [6]), the “logFC GAK” value is −1.972. Moreover, the “logFC FASTKD2 (Q9NYY8)” value in assay [3] (Experiment wp071) is given as −0.4341.
